Here are results for twelve compounds from article PMC9885526 (ACS Central Science, 2023).

The EC50 is the concentration that produces a half-maximal response. For orientation: IC50 means the midpoint of a concentration-inhibition curve. One may read the EC90 as the concentration needed for an effect of 90%. A higher EC90 goes with weaker potency.

Series [1] has as its system SARS-CoV-2. As to conditions: cited from earlier work.
In series [2] the target is SARS-CoV-2 3CLpro (Severe acute respiratory syndrome coronavirus 2, UniProt P0DTD1). Put plainly: biochemical.
Series [3] relates to SARS-CoV-2 (wild-type strain). Put plainly: microbe, parasite or virus in culture. It counts as cell-based. Conditions: Severe acute respiratory syndrome coronavirus 2, Calu-3.
Series [4] deals with SARS-CoV-2 (wild-type strain). Put plainly: microbe, parasite or virus in culture. In kind it is cell-based. Conditions: Severe acute respiratory syndrome coronavirus 2, 48 h.
A short description of series [5]: in vitro. Conditions: human.
Series [6] addresses SARS-CoV 3CLpro (Severe acute respiratory syndrome coronavirus, UniProt P0C6X7). It counts as biochemical.
Series [7] has as its system SARS-CoV-2. More on the design: species or system K18-hACE2 transgenic mice. Conditions: mouse, in vivo, po, 300 mg/kg.
The subject of series [8] is SARS-CoV-2 (wild-type strain). Put plainly: microbe, parasite or virus in culture. In kind it is cell-based. Conditions: Severe acute respiratory syndrome coronavirus 2.

Each structure is given as a SMILES string.

With `O=C(Cn1nnc2ccccc21)N(Cc1cccc(Cl)c1)c1ccc(-c2cnc[nH]2)cc1` [CCF0058981], the EC50 in series [1] is roughly 0.5 µM.

The compound `O=C(O)c1cc(Br)cc([N+](=O)[O-])c1N[C@@H]1CCCC[C@@H]1NC(=O)c1cncc2ccccc12` [WU-12] registered an IC50 in series [2] of 6.11 ± 2.63 µM.

In series [2], `CNC(=O)c1cc(Br)cc(C(F)(F)F)c1N[C@@H]1CCCC[C@@H]1NC(=O)c1cncc2ccccc12` [WU-07] showed an IC50 of 0.239 ± 0.016 µM.

With `CNC(=O)c1cc(Br)cc([N+](=O)[O-])c1N[C@@H]1CCCC[C@@H]1NC(=O)c1cncc2cc(O)ccc12` [WU-09], the midpoint of inhibition in series [2], the IC50, lay at 0.221 ± 0.035 µM.

In series [2], `CNC(=O)c1cc(Br)cc([N+](=O)[O-])c1NC(C(C)C)C1CN(C(=O)c2cncc3cc(O)ccc23)C1` (stereo not shown) [WU-05] registered a half-maximal inhibitory concentration (IC50) of 0.122 ± 0.016 µM.

Consider `CNC(=O)c1cc(Br)cc([N+](=O)[O-])c1N1CC[C@@]2(CN(C(=O)c3cncc4cc(O)ccc34)C[C@@H]2c2ccccc2)C1` [WU-02], for which, in series [2], half-maximal inhibition (IC50) was put at 0.071 µM. Further, the EC50 in series [3] worked out at 0.08 µM; in series [4], 0.054 µM. The EC90 is 0.201 ± 0.057 µM in series [3] and 0.305 µM in series [4]. The same compound came in with a CC50 in series [5] greater than 20 µM.

In the case of `CNC(=O)c1cc(Br)ccc1N[C@@H]1CCCC[C@@H]1NC(=O)c1cncc2ccccc12` [WU-06], the “inhibitory activity against SARS-CoV-2 3CLpro” value in series [2] is “abolished the activity”. For the same compound, the “inhibition of SARS-CoV 3CLpro enzyme activity” value in series [6] is “showed no activity”.

With `CCC(CCNc1c(C(=O)NC)cc(Br)cc1[N+](=O)[O-])NC(=O)c1cncc2cccc(O)c12` (stereo not shown) [WU-01], half-maximal inhibition in series [2] (IC50) was put at 0.648 ± 0.068 µM.

`CNC(=O)c1cc(Br)cc(C#N)c1N[C@@H]1CCCC[C@@H]1NC(=O)c1cncc2ccccc12` [WU-08] returned a 50% inhibitory concentration (IC50) in series [2] of 0.467 ± 0.064 µM.

In series [2], `COC(=O)c1cc(Br)cc([N+](=O)[O-])c1N[C@@H]1CCCC[C@@H]1NC(=O)c1cncc2ccccc12` [WU-11] displayed an IC50 of 0.849 ± 0.161 µM.

`CNC(=O)c1cc(Br)cc([N+](=O)[O-])c1N[C@@H]1CCCC[C@@H]1NC(=O)c1cncc2cccc(O)c12` [WU-10] showed a concentration for half-maximal inhibition (IC50) in series [2] of 0.135 ± 0.008 µM.

In the case of `CC(C)(C)[C@H](NC(=O)C(F)(F)F)C(=O)N1C[C@H]2[C@@H]([C@H]1C(=O)N[C@H](C#N)C[C@@H]1CCNC1=O)C2(C)C` [PF-07321332, Nirmatrelvir], in series [7], the “average body weight change” value is “did not change”. Moreover, the midpoint of the response in series [8], the EC50, lay at 0.117 µM.
